Source: US20230085307A1, “PYRIDAZINONE COMPOUND AND HERBICIDE” (NISSAN CHEMICAL CORPORATION, priority 2019, published 2023)

Legend:
[1] = system: Italian ryegrass; assay: Test Example 4: herbicidal effect by soil treatment (Table 19, symbol K); assay type: in vivo, Italian ryegrass (Lolium multiflorum)
Summary of the method: (§1)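 Pre-emergence style soil spray: seeds under ~1.5 cm sterilized diluvial soil received a uniform coat of emulsion diluted to the predetermined herbicide amount. Greenhouse 25–30° C; readout at week three on previously defined criteria.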

[2] = system: late watergrass; assay: Test Example 2: herbicidal activity, application during weed generation under submerged conditions (Table 17, symbol A); assay type: in vivo, late watergrass (Echinochloa oryzicola); settings: application during weed generation, submerged conditions
Summary of the method: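 Steps: fill Wagner pots with alluvial soil; add water to give 4 cm depth; sow the species mixed; grow under glass at 25–30° C.; at 1–2 leaves apply water-diluted emulsion formulation to the water surface at a fixed herbicide amount; score after 3 weeks.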

[3] = system: lambsquarters; assay: Test Example 4: herbicidal effect by soil treatment (Table 19, symbol O); assay type: in vivo, lambsquarters (Chenopodium album)
Summary of the method: as §1

[4] = system: rice flat sedge; assay: Test Example 3: herbicidal effect by foliage application, Wagner pot (Table 18, symbol E); assay type: in vivo, rice flat sedge (Cyperus iria)
Summary of the method: (§2)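 Plants were sown in alluvial soil held under 0.1–0.5 cm standing water and grown 14 days in a greenhouse at 25–30 °C. An emulsifiable formulation, water-diluted to the set dose, was then sprayed onto the foliage, and effects were scored three weeks later using previously defined criteria.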

[5] = system: southern crabgrass; assay: Test Example 4: herbicidal effect by soil treatment (Table 19, symbol F); assay type: in vivo, southern crabgrass (Digitaria ciliaris)
Summary of the method: as §1

[6] = system: windgrass; assay: Test Example 4: herbicidal effect by soil treatment (Table 19, symbol L); assay type: in vivo, windgrass (Apera spica-venti)
Summary of the method: as §1

[7] = system: late watergrass; assay: Test Example 1: herbicidal activity, application before weed generation under submerged conditions (Table 16, symbol A); assay type: in vivo, late watergrass (Echinochloa oryzicola)
Summary of the method: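 Emulsion formulation, water-diluted to set dose, was put onto the flooded surface (4 cm depth, alluvial soil) the same day weeds were sown and 2.5-leaf rice transplanted. After 3 weeks at 25-30 °C under glass, each species was rated 0 (≤5% kill) to 5 (≥90% kill).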

[8] = system: chickweed; assay: Test Example 4: herbicidal effect by soil treatment (Table 19, symbol P); assay type: in vivo, common chickweed (Stellaria media)
Summary of the method: as §1

[9] = system: wild oat; assay: Test Example 4: herbicidal effect by soil treatment (Table 19, symbol I); assay type: in vivo, wild oat (Avena fatua)
Summary of the method: as §1

[10] = system: barnyard grass; assay: Test Example 5: herbicidal effect by foliage application, plastic box (Table 20, symbol H); assay type: in vivo, barnyard grass (Echinochloa crus-galli); settings: foliage application
Summary of the method: (§3)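 Plants were sown into sterilized diluvial soil under about 1.5 cm cover and kept in a greenhouse at 25° C. to 30° C. Fourteen days on, foliage received an even spray of the diluted emulsion. Herbicidal or crop effect was judged three weeks afterwards.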

[11] = system: chickweed; assay: Test Example 5: herbicidal effect by foliage application, plastic box (Table 20, symbol P); assay type: in vivo, common chickweed (Stellaria media); settings: foliage application
Summary of the method: as §3

[12] = system: wild oat; assay: Test Example 5: herbicidal effect by foliage application, plastic box (Table 20, symbol I); assay type: in vivo, wild oat (Avena fatua); settings: foliage application
Summary of the method: as §3

[13] = system: Chinese sprangletop; assay: Test Example 3: herbicidal effect by foliage application, Wagner pot (Table 18, symbol D); assay type: in vivo, chinese sprangletop (Leptochloa chinensis)
Summary of the method: as §2

[14] = system: Italian ryegrass; assay: Test Example 5: herbicidal effect by foliage application, plastic box (Table 20, symbol K); assay type: in vivo, Italian ryegrass (Lolium multiflorum); settings: foliage application
Summary of the method: as §3

[15] = system: lambsquarters; assay: Test Example 5: herbicidal effect by foliage application, plastic box (Table 20, symbol O); assay type: in vivo, lambsquarters (Chenopodium album); settings: foliage application
Summary of the method: as §3

[16] = system: redroot pigweed; assay: Test Example 5: herbicidal effect by foliage application, plastic box (Table 20, symbol N); assay type: in vivo, redroot pigweed (Amaranthus retroflexus); settings: foliage application
Summary of the method: as §3

[17] = amount of applied herbicide 320 g/ha
[18] = AAH 320 g/ha, evaluated three weeks after application
[19] = amount of applied herbicide 274 g/ha
[20] = 274 g/ha, three weeks after application

SMILES: Cc1nn(C)c(=O)c(-c2c(-c3ccc(Cl)cc3F)sc3ccc(F)cc23)c1O [2-348]
- herbicidal effect on K: Italian ryegrass [1, 17]: 2 (Herbicidal rate of 20% or more and less than 40%)
- herbicidal effect rating, A: late watergrass ([2]; AAH 320 g/ha): 3 (Herbicidal rate of 40% or more and less than 70%)
- herbicidal effect on O: lambsquarters [3, 17]: 5 (Herbicidal rate of 90% or more (almost completely withered))
- herbicidal effect on E: rice flat sedge [4, 17]: 5 (Herbicidal rate of 90% or more (almost completely withered))
- herbicidal effect on F: southern crabgrass [5, 17]: 1 (Herbicidal rate of 5% or more and less than 20%)
- herbicidal effect on L: windgrass [6, 17]: 0 (Herbicidal rate of 5% or less (almost no effect))
- Herbicidal effect on A: late watergrass (grade 0-5) ([7]; 320 g/ha applied herbicide): 2 (Herbicidal rate of 20% or more and less than 40%)
- herbicidal effect on P: chickweed [8, 17]: 3 (Herbicidal rate of 40% or more and less than 70%)
- herbicidal effect on I: wild oat [9, 17]: 0 (Herbicidal rate of 5% or less (almost no effect))
- H: barnyard grass, herbicidal effect (criteria 0-5) [10, 18]: 5 (Herbicidal rate of 90% or more (almost completely withered))
- P: chickweed, herbicidal effect (criteria 0-5) [11, 18]: 5 (Herbicidal rate of 90% or more (almost completely withered))
- I: wild oat, herbicidal effect (criteria 0-5) [12, 18]: 5 (Herbicidal rate of 90% or more (almost completely withered))
- herbicidal effect on D: Chinese sprangletop [13, 17]: 5 (Herbicidal rate of 90% or more (almost completely withered))
- K: Italian ryegrass, herbicidal effect (criteria 0-5) [14, 18]: 4 (Herbicidal rate of 70% or more and less than 90%)
- O: lambsquarters, herbicidal effect (criteria 0-5) [15, 18]: 5 (Herbicidal rate of 90% or more (almost completely withered))
- N: redroot pigweed, herbicidal effect (criteria 0-5) [16, 18]: 5 (Herbicidal rate of 90% or more (almost completely withered))

SMILES: COc1ccccc1-c1sc2cc(C)ccc2c1-c1c(O)c(C)nn(C)c1=O [3-049]
- K: Italian ryegrass, herbicidal effect grade [1, 19]: 5 (Herbicidal rate of 90% or more (almost completely withered))
- herbicidal effect rating, A: late watergrass ([2]; AAH 274 g/ha): 4 (Herbicidal rate of 70% or more and less than 90%)
- O: lambsquarters, herbicidal effect grade [3, 19]: 4 (Herbicidal rate of 70% or more and less than 90%)
- herbicidal effect on rice flat sedge (E) ([4]; 274 g/ha): 3 (Herbicidal rate of 40% or more and less than 70%)
- F: southern crabgrass, herbicidal effect grade [5, 19]: 3 (Herbicidal rate of 40% or more and less than 70%)
- L: windgrass, herbicidal effect grade [6, 19]: 5 (Herbicidal rate of 90% or more (almost completely withered))
- Herbicidal effect, A: late watergrass [7, 19]: 5 (Herbicidal rate of 90% or more (almost completely withered))
- P: chickweed, herbicidal effect grade [8, 19]: 4 (Herbicidal rate of 70% or more and less than 90%)
- I: wild oat, herbicidal effect grade [9, 19]: 3 (Herbicidal rate of 40% or more and less than 70%)
- H: barnyard grass, herbicidal effect grade [10, 20]: 4 (Herbicidal rate of 70% or more and less than 90%)
- P: chickweed, herbicidal effect grade [11, 20]: 5 (Herbicidal rate of 90% or more (almost completely withered))
- I: wild oat, herbicidal effect grade [12, 20]: 5 (Herbicidal rate of 90% or more (almost completely withered))
- herbicidal effect on Chinese sprangletop (D) ([13]; 274 g/ha): 5 (Herbicidal rate of 90% or more (almost completely withered))
- K: Italian ryegrass, herbicidal effect grade [14, 20]: 5 (Herbicidal rate of 90% or more (almost completely withered))
- O: lambsquarters, herbicidal effect grade [15, 20]: 4 (Herbicidal rate of 70% or more and less than 90%)
- N: redroot pigweed, herbicidal effect grade [16, 20]: 5 (Herbicidal rate of 90% or more (almost completely withered))
